The subject of series [1] is RdRp. Set-up: method as in ref 28 (a number printed in a supplementary file, which may have a reference list of its own: not looked up in the article's list). The note with it: PDB 4WTG; read-out: Binding affinity to RdRp (IC50); cited from earlier work.
Series [2] is described as follows: Cytotoxicity (CC50) in Calu-3 cells. The note with it: human.
The nature of series [3]: Cytotoxicity (CC50) in Vero cells. The note with it: African green monkey.
Series [4] has as its system SARS-CoV-2. The series can be described thus: microbe, parasite or virus in culture. The note with it: Severe acute respiratory syndrome coronavirus 2, Vero, 24 h, read-out: SARS-CoV-2 IC50 in Vero cells.
Series [5] has as its system SARS-CoV-2. The series can be described thus: microbe, parasite or virus in culture. The note with it: Severe acute respiratory syndrome coronavirus 2, Calu-3, 24 h, Calu-3 cells, MOI 0.5, 24 h. It is filed as cell-based.
For series [6] the following is noted: read-out: Approx. Cmax (maximum serum concentration); rat, oral; cited from earlier work.
A further series concerns the target M^pro (Severe acute respiratory syndrome coronavirus 2, UniProt P0DTD1). It counts as biochemical. The note with it: FRET assay, 0.1 to 50 μM.
The target in another series is SARS-CoV-2 RdRp (Severe acute respiratory syndrome coronavirus 2, UniProt P0DTD1). The series can be described thus: RdRp enzyme assay kit. It is filed as biochemical. The note with it: positive control, even at high concentrations. On the set-up: dose or concentration left out as unconfirmed.
The test system of series [7] is RdRp. On the set-up: method as in ref 29 (a number printed in a supplementary file, which may have a reference list of its own: not looked up in the article's list). The note with it: PDB 1T05; read-out: Binding affinity to RdRp (IC50); cited from earlier work.
A further series relates to Mpro. The note with it: read-out: Binding affinity to Mpro (IC50); PDB 6W63; cited from earlier work.

Each structure is given as a SMILES string. pIC50: −log10 of the molar value. Like-named read-outs stand apart in the source and are kept apart here. Bounds are passed on as bounds.

The source of these data is article PMC8325362, “Drugs repurposed for COVID-19 by virtual screening of 6,218 drugs and cell-based assay” (Proceedings of the National Academy of Sciences of the …, 2021).

For orientation: pIC50 means the negative decadic logarithm of the IC50, by convention in mol/L. For the compound `CC(C)OC(=O)[C@H](C)N[P@](=O)(OC[C@H]1O[C@@H](n2ccc(=O)[nH]c2=O)[C@](C)(F)[C@@H]1O)Oc1ccccc1` [6GS (sofosbuvir)], the pIC50 in the series with RdRp [1] was 7.19.

For orientation: CC50 means the concentration giving 50% cytotoxicity. `Cc1cc(O)c2c(c1)C(=O)c1cc(O)cc(O)c1C2=O` [Emodin]: the CC50 at 24 h in series [2] and in series [3] was greater than 50 µM each time. In addition, the pIC50 is 4.50 in the series with SARS-CoV-2 [4] and 4.55 in the series on SARS-CoV-2 [5]. Further, the Cmax in series [6] was roughly 78 nM. Also, the “inhibitory activity against M^pro” value on M^pro is “showed inhibitory activities”.

Regarding `N#C[C@@]1(c2ccc3c(N)ncnn23)O[C@H](COP(=O)(O)OP(=O)(O)OP(=O)(O)O)[C@@H](O)[C@H]1O` [RDV-TP, remdesivir triphosphate], the “activity in RdRp assay” value on SARS-CoV-2 RdRp is given as “did not show activity”.

As to `C[C@H](Cn1cnc2c(N)ncnc21)OCP(=O)(O)O` [TNV (tenofovir)], the negative logarithm of the IC50 (pIC50) with RdRp [7] is 5.89.

Consider `CC(C)(C)c1ccc(N(C(=O)c2cnc[nH]2)[C@@H](C(=O)NC2CCCCC2)c2cccnc2)cc1` [X77], for which the pIC50 with Mpro is 5.64.
